# Where “and” joins values, the source holds several entries; their conditions need not be identical. Identical values can stand only once. Entries after “also recorded” stand apart in the source; their conditions may differ. Like-named read-outs stand apart in the source and are kept apart here. Marks after values point to notes of the source that are not given here.
# Key:
# [1] = Solubility in water and methanol (saturated solutions, HPLC); format: physicochemical
# Procedure: Approximately 5 mg of asiatic acid were transferred into a 25 mL volumetric flask, and 1 mL, of methanol was added and mixed well, until the acid had dissolved in the methanol. The volumetric flask then was brought to volume with mobile phase and mixed well. [table] Saturated solutions obtained from starting material and salt in methanol and water were filtered and diluted accordingly with mobile phase. No dilution was performed for asiatic acid in water. Samples were prepared in triplicate except for the sodium salt prepared in methanol, for which two preparations were done.
# [2] = system: bleomycin-induced pulmonary fibrosis in rats; test: Mortality during experiment days 7-28, bleomycin-induced pulmonary fibrosis in rats; format: in vivo, SD rats
# Procedure: (§1) Male SD rats, body weight 250-300 g. The animals were anesthetized with 3% seconal, laid flat and fixed onto the operating table. The necks of the animals were disinfected with alcohol and cut to expose tracheae. A needle was inserted via the space between tracheal rings centripetally, and 5 mg/kg of bleomycin was injected. The rats were kept upright and rotated, in order to keep the solution uniformly distributed in the lungs. Then the incisions were sutured.
# (§2) After the rats regained consciousness, they were randomly grouped. The animals were divided into (i) a group receiving administration on the next day after establishing the model and (ii) a group receiving administration at 7 days after the model was established. Included were 27, 9, and 3 mg/kg p.o.×28 d asiatic acid groups, 0.6 mg/kg p.o.×28 d dexamethasone group, 36 mg/kg p.o.×28 d asiaticoside group, model group, and blank group. Normal saline was administered for the model and blank groups. On the 28th day after asiatic acid and asiaticoside administration, survival and weight ratio of lungs were measured; pathological examination and serological examination were performed.
# [3] = system: bleomycin-induced pulmonary fibrosis in rats; test: Lung weight index of bleomycin-induced pulmonary fibrosis in rats; format: in vivo, SD rats; conditions: for lung weight ratio (%): (lung weight/body weight)x100%
# Procedure: as §1, §2
# Effect of on lung weight index of bleomycin-induced pulmonary fibrosis in rats treated with asiatic acid Body weight and lung weight were measured after the rats were sacrificed. Lung weight ratio=(lung weight/body weight)×100%.
# [4] = system: TFG-β; test: Serological test (ELISA kit) of TFG-β in rats of bleomycin-induced pulmonary fibrosis; format: in vivo, SD rats; conditions: for TFG-β (2nd day) X ± SD / TFG-β (7th day) X ± SD: serum; for TFG-β (2nd day) X ± SD: dosing from 2nd day; for TFG-β (7th day) X ± SD: dosing from 7th day; for serum levels of TGF-β (words): treatment initiated one day or seven days after bleomycin
# Procedure: TFG-β Kit, Human 96T ELISA kit imported by Shanghai Jingmei
# as §1, §2
# (§3) Serum samples were prepared according to a standard protocol (centrifuged 3000 rpm, 10 minutes after collection) and were stored at −20° C. Testing was conducted in accordance with kit instructions.
# [5] = system: TNF-α; test: Serological test (ELISA kit) of TNF-α in rats of bleomycin-induced pulmonary fibrosis; format: in vivo, SD rats; conditions: for TNF-α (2nd day) X ± SD / TNF-α (7th day) X ± SD: serum; for TNF-α (2nd day) X ± SD: dosing from 2nd day; for TNF-α (7th day) X ± SD: dosing from 7th day; for serum levels of TNF-α (words): treatment initiated one day or seven days after bleomycin
# Procedure: TNF-α Kit, Human 96T ELISA kit imported by Shanghai Jingmei
# as §1, §2, §3
# [6] = system: Hydroxyproline; test: Measured value of hydroxyproline in experiment of asiatic acid antagonizing fibrosis; format: in vivo, SD rats; design: Measured Value of Hydroxyproline (on 2nd day), single animals / Measured Value of Hydroxyproline (on 2nd day), X / Measured Value of Hydroxyproline (on 7th day), single animals / Measured Value of Hydroxyproline (on 7th day), X: unit not given here; conditions: for Measured Value of Hydroxyproline (on 2nd day), X / Measured Value of Hydroxyproline (on 7th day), X: group mean; for Measured Value of Hydroxyproline (on 2nd day), single animals / Measured Value of Hydroxyproline (on 7th day), single animals: individual rats 1-10
# Procedure: as §1, §2
# [7] = system: Type III collagen; test: Type III collagen content, bleomycin rat model; format: in vivo, SD rats; conditions: for Type III collagen content X ± SD: treatment starting on Day 7
# Procedure: as §1, §2
# [8] = system: pulmonary fibrosis induced by bleomycin in rats; test: Pathological analysis of lung (HE staining; collagen fiber and elastic fiber dual staining); format: in vivo, SD rats; conditions: for collagen fiber and elastic fiber staining / lung pathology, HE staining: administration on the next day after establishing model
# Procedure: as §1, §2
# The lung tissues were fixed in 10% formalin for 1 week. […] The thickness of sections was […]. Routine hematoxylin-eosin (HE) staining was performed. Dual special staining of collagen fibers and elastic fibers were conducted in order to detect the degree of fibrosis. The staining of the two groups of sections was observed and the results were as follows.
# [9] = asiatic acid high dose (27 mg/kg)
# [10] = asiatic acid low dose (3 mg/kg)
# [11] = asiatic acid middle dose (9 mg/kg)
compound,measurement,setting,value
"C[C@H]1[C@H](C)CC[C@]2(C(=O)O)CC[C@]3(C)C(=CC[C@@H]4[C@@]5(C)C[C@@H](O)[C@H](O)[C@@](C)(CO)[C@@H]5CC[C@]43C)[C@H]12 [Asiatic acid, asiatic acid]",Solubility,"[1]; MeOH, single preparations (inj 1A-1C), listed as Asiatic acid raw material",37200 µg/mL and 34870 µg/mL
same,solubility in methanol,[1]; methanol,good solubility
same,Solubility,"[1]; methanol, organic solvent or mixture, thermodynamic from solid, MeOH, single preparations (inj 1A-1C), read-out: Solubility",27200 µg/mL
same,Solubility,"[1]; water, thermodynamic from solid, water, read-out: Solubility in water",30 µg/mL
same,Solubility,"[1]; water, thermodynamic from solid, water, single preparations (inj 1A-1C), read-out: Solubility",30 µg/mL
same,Solubility,"[1]; water, single preparations (inj 1A-1C), listed as Asiatic acid raw material",40 µg/mL and 20 µg/mL
same,remaining samples at the end of study,"[2]; Asiatic acid-H (27 mg/kg p.o. x 28 d), dosing started on 2nd day, 13 on day 7",13
same,number of deaths,"[2]; Asiatic acid-H (27 mg/kg p.o. x 28 d), dosing started on 2nd day, days 7-28",0
same,number of deaths,"[2]; Asiatic acid-H (27 mg/kg p.o. x 28 d), dosing started on 7th day",0
same,remaining samples at the end of study,"[2]; Asiatic acid-H (27 mg/kg p.o. x 28 d), dosing started on 7th day, 13 in the group",13
same,remaining samples at the end of study,"[2]; Asiatic acid-L (3 mg/kg p.o. x 28 d), dosing started on 2nd day, 13 on day 7",11
same,number of deaths,"[2]; Asiatic acid-L (3 mg/kg p.o. x 28 d), dosing started on 2nd day, days 7-28",2
same,number of deaths,"[2]; Asiatic acid-L (3 mg/kg p.o. x 28 d), dosing started on 7th day",1
same,remaining samples at the end of study,"[2]; Asiatic acid-L (3 mg/kg p.o. x 28 d), dosing started on 7th day, 13 in the group",12
same,remaining samples at the end of study,"[2]; Asiatic acid-M (9 mg/kg p.o. x 28 d), dosing started on 2nd day, 14 on day 7",13
same,number of deaths,"[2]; Asiatic acid-M (9 mg/kg p.o. x 28 d), dosing started on 2nd day, days 7-28",1
same,number of deaths,"[2]; Asiatic acid-M (9 mg/kg p.o. x 28 d), dosing started on 7th day",1
same,remaining samples at the end of study,"[2]; Asiatic acid-M (9 mg/kg p.o. x 28 d), dosing started on 7th day, 13 in the group",12
same,survival / bleomycin-induced death,"[2]; rats treated with bleomycin, treatment initiated one day or seven days after bleomycin",largely prevented bleomycin-induced death; also recorded: significantly enhance survival
same,lung weight ratio (%),"[3]; asiatic acid 3 mg/kg, started 7 day after model established",0.83** %
same,lung weight ratio (%),"[3]; asiatic acid 3 mg/kg, started from the second day",0.84** %
same,lung weight ratio (%),"[3]; asiatic acid 9 mg/kg, started 7 day after model established",0.82** %
same,lung weight ratio (%),"[3]; asiatic acid 9 mg/kg, started from the second day",0.78** %
same,lung weight ratio (%),"[3]; asiatic acid 27 mg/kg, started 7 day after model established",0.73** %
same,lung weight ratio (%),"[3]; asiatic acid 27 mg/kg, started from the second day",0.69** %
same,lung weight (g) X ± SD,"[3]; asiatic acid 3 mg/kg, 28-day administration started 7 day after model established",2.64 ± 0.33 g
same,lung weight (g) X ± SD,"[3]; asiatic acid 3 mg/kg, 28-day administration started from the second day",2.74 ± 0.54 g
same,lung weight (g) X ± SD,"[3]; asiatic acid 9 mg/kg, 28-day administration started 7 day after model established",2.69 ± 0.53 g
same,lung weight (g) X ± SD,"[3]; asiatic acid 9 mg/kg, 28-day administration started from the second day",2.49 ± 0.40 g
same,lung weight (g) X ± SD,"[3]; asiatic acid 27 mg/kg, 28-day administration started 7 day after model established",2.52 ± 0.25 g
same,lung weight (g) X ± SD,"[3]; asiatic acid 27 mg/kg, 28-day administration started from the second day",2.41 ± 0.38 g
same,lung weight to body weight ratio,"[3]; starting on 2nd or 7th day, compared with the model group",significantly lower; also recorded: significantly decrease bleomycin-induced lung fibrosis
same,TFG-β (2nd day) X ± SD,[4]; asiatic acid 3 mg/kg,0.726 ± 0.220 OD value
same,TFG-β (7th day) X ± SD,[4]; asiatic acid 3 mg/kg,1.494 ± 0.273 OD value
same,TFG-β (2nd day) X ± SD,[4]; asiatic acid 9 mg/kg,0.642 ± 0.139 OD value
same,TFG-β (7th day) X ± SD,[4]; asiatic acid 9 mg/kg,1.165 ± 0.412 OD value
same,TFG-β (2nd day) X ± SD,[4]; asiatic acid 27 mg/kg,0.653 ± 0.157 OD value
same,TFG-β (7th day) X ± SD,[4]; asiatic acid 27 mg/kg,1.049 ± 0.363 OD value
same,serum levels of TGF-β (words),[4],significantly reduces
same,serum levels of TGF-β (words),[4]; listed as asiatic acid,can lower
same,TNF-α (2nd day) X ± SD,[5]; asiatic acid 3 mg/kg,0.055 ± 0.008 OD value
same,TNF-α (7th day) X ± SD,[5]; asiatic acid 3 mg/kg,0.084 ± 0.018 OD value
same,TNF-α (2nd day) X ± SD,[5]; asiatic acid 9 mg/kg,0.056 ± 0.016 OD value
same,TNF-α (7th day) X ± SD,[5]; asiatic acid 9 mg/kg,0.096 ± 0.036 OD value
same,TNF-α (2nd day) X ± SD,[5]; asiatic acid 27 mg/kg,0.050 ± 0.007 OD value
same,TNF-α (7th day) X ± SD,[5]; asiatic acid 27 mg/kg,0.047 ± 0.013 OD value
same,serum levels of TNF-α (words),[5],significantly reduces
same,serum levels of TNF-α (words),[5]; listed as asiatic acid,can lower
same,"Measured Value of Hydroxyproline (on 2nd day), X",[6]; asiatic acid 3 mg/kg,24.31
same,"Measured Value of Hydroxyproline (on 7th day), X",[6]; asiatic acid 3 mg/kg,25.65
same,"Measured Value of Hydroxyproline (on 2nd day), single animals",[6]; asiatic acid 3 mg/kg,19.57 and 28.21 and 24.03 and 19.66 and 25.61 and 26.55 and 26.34 and 24.09 and 19.07 and 29.99
same,"Measured Value of Hydroxyproline (on 7th day), single animals",[6]; asiatic acid 3 mg/kg,20.31 and 27.14 and 28.27 and 26.14 and 28.01 and 29.34 and 25.07 and 25.36 and 25.47 and 21.37
same,"Measured Value of Hydroxyproline (on 2nd day), X",[6]; asiatic acid 9 mg/kg,22.94
same,"Measured Value of Hydroxyproline (on 7th day), X",[6]; asiatic acid 9 mg/kg,25.21
same,"Measured Value of Hydroxyproline (on 2nd day), single animals",[6]; asiatic acid 9 mg/kg,28.26 and 15.05 and 29.14 and 28.98 and 27.69 and 19.03 and 19.46 and 18.22 and 24.01 and 19.56
same,"Measured Value of Hydroxyproline (on 7th day), single animals",[6]; asiatic acid 9 mg/kg,28.19 and 24.39 (2×) and 27.98 and 28.36 and 19.36 and 24.64 and 25.66 and 29.47 and 19.66
same,"Measured Value of Hydroxyproline (on 2nd day), X",[6]; asiatic acid 27 mg/kg,21.65
same,"Measured Value of Hydroxyproline (on 7th day), X",[6]; asiatic acid 27 mg/kg,23.40
same,"Measured Value of Hydroxyproline (on 2nd day), single animals",[6]; asiatic acid 27 mg/kg,17.64 and 25.36 and 25.18 and 24.36 and 20.19 and 18.6 and 19.36 and 20.97 and 27.69 and 17.11
same,"Measured Value of Hydroxyproline (on 7th day), single animals",[6]; asiatic acid 27 mg/kg,19.68 and 19.47 and 20.14 and 24.36 (2×) and 27.14 and 25.1 and 26.38 and 27.66 and 19.74
same,serum levels of hydroxyproline,[6]; overall statement,significantly decrease bleomycin-induced fibrosis
same,Type III collagen content X ± SD,[7]; asiatic acid Medium dose (9 mg/kg),0.515 ± 0.398
same,Type III collagen content X ± SD,[7]; [9],0.387 ± 0.287
same,Type III collagen content X ± SD,[7]; [10],0.764 ± 0.826
same,serum levels of type III collagen,[7]; overall statement,significantly decrease bleomycin-induced fibrosis
same,collagen fiber and elastic fiber staining,[8]; [9],only a little fibroplastic proliferation
same,"lung pathology, HE staining",[8]; [9],mild infiltration of inflammatory cells
same,efficacy by pathology compared with asiaticoside group,[8]; asiatic acid high-dose group,better than in the asiaticoside group
same,"lung pathology, HE staining",[8]; [10],mild inflammation and alveolitis
same,collagen fiber and elastic fiber staining,[8]; [11],significantly milder than that of the model group
same,"lung pathology, HE staining",[8]; [11],mild infiltration of inflammatory cells
same,bleomycin-induced lung fibrosis by lung histopathology,[8]; overall statement,"effective against bleomycin-induced pulmonary fibrosis, on a dose-response basis; also recorded: reduces the extent of bleomycin-induced lung fibrosis"
same,lung fibrosis by histopathology compared with dexamethasone,[8]; treatment initiated seven days after bleomycin insult,more effective than dexamethasone
